Data from patent publication US20100298251A1, “WOUND-HEALING AGENT CONTAINING MOMORDICAE SEMEN EXTRACT” (priority 2007, published 2010).
Where “and” joins values, the source holds several entries; their conditions need not be identical. Equal entries are not always repeated.

Tested on: wounded mouse skin
Assay: Wound-healing effect in wounded skin mouse model (topical, once daily for 10 days)
Type: in vivo
[1] = group mean (X, 5 mice), topical x10, dose/mouse: extract 50 μg, fraction 3 10 μg, saponin I 5 μg, CGS-21680 10 μg
[2] = group mean (X, 5 mice), topical x10, dose/mouse: extract 50 μg, fraction 3 10 μg, saponin I 5 μg, CGS-21680 10 μg, * P<0.05 vs vehicle
[3] = individual mouse (N 1-5), same doses as group means

Procedure: Thus prepared test materials(20 μl) were topically applied on the wounded mouse skin, once daily for 10 consecutive days.
As a positive control drug, CGS-21680 (Tocris, USA) was prepared same as the above, and topically administered at a dosage of 10 μg/20 μl, once daily for 10 consecutive days.
Twenty-five male mice of CD-1 origin having 24 g±2 g of body weight were divided into 5 groups. The mice were put into separate cages. After anesthesia with hexobarbital (90 mg/kg, IP), the furs on the shoulders and the backs of the mice were shaved. A portion of skin including a muscle layer beneath the skin and a tissue attached thereof was cut off by using a sharp punch (ID12 mm). After being wounded on the skin, the mice were administered topically with the test materials of Momordicae semen extract, Momordica saponin I fraction 3, Momordica saponin I, and CGS-21680 were, respectively, at a concentration of 50, 10, 5, and 10 μg/20 μl, respectively, once daily for 10 consecutive days.
The area of wounded skin detected on a transparent plastic sheet was measured using Image-ProPlus (Media Cybernetics, Version 4.5.0.29) on day 1, 3, 5, 7, 9, and 11. […] The Dunnett's test was performed after one-way analysis of variance (one-way ANOVA), in order for the comparison between the treated group and the vehicle group at each measuring point. The difference was of statistical significance at P<0.05.

Row | Compound | Wound Closure Rate (%) Day 1 [1] [%] | Wound Closure Rate (%) Day 3 [2] | Wound Closure Rate (%) Day 5 [2] | Wound Closure Rate (%) Day 7 [2] | Wound Closure Rate (%) Day 9 [2] | Wound Closure Rate (%) Day 11 [2] | CT50 (time required for wound closure) [2] | Wound Closure Rate (%) Day 1 [3] [%] | Wound Closure Rate (%) Day 3 [3] | Wound Closure Rate (%) Day 5 [3] | Wound Closure Rate (%) Day 7 [3] | Wound Closure Rate (%) Day 9 [3] | Wound Closure Rate (%) Day 11 [3] | CT50 (time required for wound closure) [3] | wound-healing effect (overall statement on Table 2 and FIG. 1)
1 | CCNC(=O)[C@H]1O[C@@H](n2cnc3c(N)nc(NCCc4ccc(CCC(=O)O)cc4)nc32)[C@H](O)[C@@H]1O [CGS-21680, reference compound] | 0.0 | *45.1% | *58.5% | *68.5% | *79.0% | *83.1% | *5.2 Days | 0.0 | 46.7% (2×) and 36.0% and 54.4% and 41.6% | 62.5% and 59.3% and 55.5% and 59.6% and 55.8% | 71.2% and 66.5% and 62.7% and 71.8% and 70.3% | 79.9% and 74.7% and 79.7% and 81.6% and 79.2% | 85.6% and 84.6% and 78.3% and 82.9% and 84.3% | 5.0 days and 5.6 days and 5.2 days and 5.1 days and 5.3 days | –
2 | CC1OC(OC2C(O)C(C(=O)O)OC(OC3CCC4(C)C(CCC5(C)C4CC=C4C6CC(C)(C)CCC6(C(=O)OC6OC(C)C(O)C(O)C6OC6OC(C)C(OC7OCC(O)C(O)C7O)C(OC7OC(CO)C(O)C(OC8OCC(O)C(O)C8O)C7O)C6O)CCC45C)C3(C)C=O)C2OC2OC(CO)C(O)C(O)C2O)C(O)C(O)C1O [Momordica Saponin I, 3-O-beta-D-Galactopyranosyl (1->2)-[alpha-L-rhamnopyranosyl (1->3)]-beta-D-glucuronopyranosido-28-O-beta-D-xylopyranosyl (1->3)-beta-D-glucopyranosyl (1->3)-[beta-D-xylopyranosyl (1->4)]-alpha-L-rhamnopyranosyl (1->2)-beta-D-fucopyranosyl gypsogenin] | 0.0 | *40.1% | *53.0% | *66.1% | *77.3% | *83.4% | *5.6 Days | 0.0 | 32.9% and 45.4% (2×) and 31.2% and 45.6% | 54.4% and 54.8% and 48.8% and 51.4% and 55.5% | 69.9% and 71.5% and 58.8% and 62.9% and 67.5% | 80.8% and 80.4% and 69.4% and 75.6% and 80.5% | 85.0% and 88.3% and 78.1% and 84.6% and 81.1% | 5.5 days and 5.2 days and 6.3 days and 5.6 days and 5.3 days | superior wound-healing effects
